Laboratory results taken from ChEMBL document CHEMBL3758166, “Fragment-based discovery of DNA gyrase inhibitors targeting the ATPase subunit of GyrB” (Bioorg Med Chem Lett, 2016).

What was measured:
DNA gyrase subunit B = DNA gyrase subunit B (Staphylococcus aureus, UniProt P0A0K8); experiment: Binding affinity to full length Staphylococcus aureus GyrB by STD-NMR spectroscopic analysis
DNA gyrase = DNA gyrase (Staphylococcus aureus, UniProt P0A0K8+P20831); experiment: Inhibition of Staphylococcus aureus DNA gyrase ATPase activity using pBR322 DNA as substrate after 30 mins by fluorescence polarization assay; assay type: protein-complex assay
[1] = Binding affinity to Escherichia coli ParE by STD-NMR Spectroscopic analysis

Compound | IC50 (DNA gyrase subunit B) | IC50 (DNA gyrase) | IC50 [1] | IC50 ([1]; read-out: IC50)
Cc1n[nH]c2c1C(c1ccccc1F)CC(=O)N2 (configuration not stated) | 840 µM | – | Not Active | –
CCCC(=O)Nc1sccc1C(N)=O | 50 µM | – | – | 50 µM
O=c1[nH]cnc2scc(-c3cccs3)c12 | 50 µM | – | – | –
Nc1nc(O)cc(-c2ccccc2)n1 | 50 µM | – | Not Active | –

More lines, now with the values ahead:

IC50 (DNA gyrase subunit B) | IC50 (DNA gyrase) | IC50 [1] | IC50 ([1]; read-out: IC50) | Compound
50 µM | 1.32 µM | – | – | O=c1cc(-c2ccccc2)c2c(-c3cnc(-c4cccnc4)s3)n[nH]c2[nH]1
840 µM | – | Not Active | – | Cc1cc(O)[nH]c2nnc(-c3ccccc3)c1-2
50 µM | 0.265 µM | – | – | O=c1ccc2c(-c3cnc(-c4cccnc4)s3)n[nH]c2[nH]1
50 µM | 3.25 µM | – | – | Cc1cc(=O)[nH]c2[nH]nc(-c3cnc(-c4cccnc4)s3)c12
840 µM | – | – | 50 µM | O=C1Nc2ccccc2/C1=C\c1cccnc1
